Test results published in patent publication US6369069B1 (Aventis Pharma Deutschland GmbH, priority 1998, dated 2002).

system: Na^+-dependent Cl^−/HCO3^− exchanger (NCBE); assay: Inhibition of the Na+-dependent Cl−/HCO3− exchanger (NCBE) in human endothelial cells (pHi recovery, BCECF fluorescence, FLIPR); type: cell-based; settings: 10 μM
Outline: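 ECV-304 cells loaded with 5 μM BCECF-AM in NH4Cl-containing saline, then placed in Na+/HCO3−-free buffer to acidify. pHi recovery started with Na+/HCO3− buffer (50 μM HOE 642) plus compound at various concentrations. Fluorescence kinetics over 2 min at 35 °C, normalised to 100% and 0% (HCO3−-free) controls.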

Structure (SMILES) | Residual activity % of the NCBE at 10 μM [%]
CN(Cc1ccc(-c2ccccc2S(=O)(=O)NC#N)cc1)C(=O)CCCc1cccs1 [Example 190] | 43.4
C#CCN(Cc1ccc(-c2ccccc2S(=O)(=O)NC#N)cc1)C(=O)CCCCc1ccccc1 [Example 247] | 74.6
N#CNS(=O)(=O)c1ccccc1-c1ccc(CN(Cc2ccc(C(F)(F)F)cc2)C(=O)c2cc3ccccc3s2)cc1 [Example 79] | 61.7
COC(=O)C(Cc1ccccc1)N(Cc1ccc(-c2ccccc2S(=O)(=O)NC#N)cc1)C(=O)Cc1c[nH]c2ccccc12 (centres unmarked) [Example 209] | 56.2
N#CNS(=O)(=O)c1ccccc1-c1ccc(CN(C(=O)CC2CCCC2)C2CCc3ccccc32)cc1 (centres unmarked) [Example 364] | 52.6
N#CNS(=O)(=O)c1ccccc1-c1ccc(CN(Cc2ccc(Cl)c(Cl)c2)C(=O)C(NC(=O)OCc2ccccc2)c2ccccc2)cc1 (centres unmarked) [Example 260] | 69.8
COC(=O)C(Cc1ccccc1)N(Cc1ccc(-c2ccccc2S(=O)(=O)NC#N)cc1)C(=O)Cc1csc2ccccc12 (centres unmarked) [Example 217] | 46.0
CC(=O)N(Cc1ccc(-c2ccccc2S(=O)(=O)NC#N)cc1)Cc1ccco1 [Example 178] | 70.6
COc1ccc(CN(Cc2ccc(-c3ccccc3S(=O)(=O)NC#N)cc2)C(=O)c2ccccc2Cl)cc1 [Example 57] | 82.1
CCN(Cc1ccc(-c2ccccc2S(=O)(=O)NC#N)cc1)C(=O)CCCCc1cccs1 [Example 223] | 53.8
C[C@H](c1ccccc1)N(Cc1ccc(-c2ccccc2S(=O)(=O)NC#N)cc1)C(=O)Cc1ccccc1 [Example 128] | 61.4
CCCCC(=O)N(Cc1ccc(Cl)cc1)Cc1ccc(-c2ccccc2S(=O)(=O)NC#N)cc1 [Example 65] | 80.0
COc1ccc(CN(Cc2ccc(-c3ccccc3S(=O)(=O)NC#N)cc2)C(=O)c2ccc(C(C)(C)C)cc2)cc1 [Example 33] | 67.2
COCCC(=O)N(Cc1ccc(-c2ccccc2S(=O)(=O)NC#N)cc1)C1CCCc2ccccc21 (centres unmarked) [Example 325] | 33.8
N#CNS(=O)(=O)c1ccccc1-c1ccc(CN(Cc2ccccc2F)C(=O)CCOc2ccccc2)cc1 [Example 346] | 36.0
N#CNS(=O)(=O)c1ccccc1-c1ccc(CN(CC2CCCCC2)C(=O)Cc2cccs2)cc1 [Example 256] | 36.4
N#CNS(=O)(=O)c1ccccc1-c1ccc(CN(C(=O)CCCCc2cccs2)C2CC2)cc1 [Example 221] | 72.3
COc1ccccc1C(=O)N(Cc1ccc(-c2ccccc2S(=O)(=O)NC#N)cc1)C1CCCc2ccccc21 (centres unmarked) [Example 335] | 79.6
N#CNS(=O)(=O)c1ccccc1-c1ccc(CN(Cc2cccc3ccccc23)C(=O)Cc2cccs2)cc1 [Example 271] | 15.9
N#CNS(=O)(=O)c1ccccc1-c1ccc(CN(Cc2cccc(Cl)c2Cl)C(=O)CC2CCCCC2)cc1 [Example 349] | 50.4
N#CNS(=O)(=O)c1ccccc1-c1ccc(CN(Cc2cccc(Cl)c2Cl)C(=O)CC2CCCC2)cc1 [Example 359] | 37.9
N#CNS(=O)(=O)c1ccccc1-c1ccc(CN(CC2CCCO2)C(=O)CCOc2ccccc2)cc1 (centres unmarked) [Example 348] | 46.3
C#CCN(Cc1ccc(-c2ccccc2S(=O)(=O)NC#N)cc1)C(=O)C(=O)c1ccco1 [Example 248] | 66.6
N#CNS(=O)(=O)c1ccccc1-c1ccc(CN(Cc2ccccc2)C(=O)c2ccccc2Cl)cc1 [Example 55] | 29.3

Structure (SMILES) | Residual activity % of the NCBE at 10 μM [%]
COc1ccc(CN(Cc2ccc(-c3ccccc3S(=O)(=O)NC#N)cc2)C(=O)Cc2cccc(OC)c2)cc1 [Example 21] | 52.3
N#CNS(=O)(=O)c1ccccc1-c1ccc(CN(CC2CCCCC2)C(=O)CCC2CCCCC2)cc1 [Example 267] | 57.9
CC(C)CN(Cc1ccc(-c2ccccc2S(=O)(=O)NC#N)cc1)C(=O)c1cccs1 [Example 82] | 99.8
N#CNS(=O)(=O)c1ccccc1-c1ccc(CN(CCCc2ccccc2)C(=O)Cc2csc3ccccc23)cc1 [Example 210] | 66.2
N#CNS(=O)(=O)c1ccccc1-c1ccc(CN(Cc2ccccc2)C(=O)NCc2ccccc2)cc1 [Example 299] | 48.6
N#CNS(=O)(=O)c1ccccc1-c1ccc(CN(CCCc2ccccc2)C(=O)Cc2ccsc2)cc1 [Example 226] | 34.8
N#CNS(=O)(=O)c1ccccc1-c1ccc(CN(CCO)C(=O)Cc2cccs2)cc1 [Example 26] | 47.6
Cc1cccc(CN(Cc2ccc(-c3ccccc3S(=O)(=O)NC#N)cc2)C(=O)CCOc2ccccc2)c1 [Example 341] | 44.6
CC(C)(C)CC(=O)N(Cc1ccc(-c2ccccc2S(=O)(=O)NC#N)cc1)CC1CC1 [Example 161] | 81.6
N#CNS(=O)(=O)c1ccccc1-c1ccc(CN(Cc2ccccn2)C(=O)CCCc2cccs2)cc1 [Example 188] | 52.3
N#CNS(=O)(=O)c1ccccc1-c1ccc(CN(Cc2cccc(Cl)c2)C(=O)Nc2c(F)cccc2F)cc1 [Example 305] | 84.9
N#CNS(=O)(=O)c1ccccc1-c1ccc(CN(Cc2ccc3ccccc3c2)C(=O)CC2CCCC2)cc1 [Example 360] | 36.9
N#CNS(=O)(=O)c1ccccc1-c1ccc(CN(Cc2ccccc2Cl)C(=O)c2cc3ccccc3s2)cc1 [Example 71] | 35.2
COc1ccccc1C(=O)N(Cc1ccc(-c2ccccc2S(=O)(=O)NC#N)cc1)Cc1ccccc1F [Example 336] | 58.1
COc1cc(CN(Cc2ccc(-c3ccccc3S(=O)(=O)NC#N)cc2)C(=O)Cc2ccc(Cl)cc2)cc(OC)c1OC [Example 155] | 34.2
C#CCN(Cc1ccc(-c2ccccc2S(=O)(=O)NC#N)cc1)C(=O)CCC1CCCCC1 [Example 249] | 76.1
N#CNS(=O)(=O)c1ccccc1-c1ccc(CN(Cc2ccccc2)C(=O)Cc2ccccc2[N+](=O)[O-])cc1 [Example 243] | 99.9
N#CNS(=O)(=O)c1ccccc1-c1ccc(CN(Cc2ccc(C(F)(F)F)cc2)C(=O)c2cccs2)cc1 [Example 89] | 67.6
COc1ccccc1CN(Cc1ccc(-c2ccccc2S(=O)(=O)NC#N)cc1)C(=O)C(c1ccccc1)c1ccccc1 [Example 114] | 81.7
C=CCOC(=O)N(Cc1ccc(OC)cc1)Cc1ccc(-c2ccccc2S(=O)(=O)NC#N)cc1 [Example 45] | 80.1
N#CNS(=O)(=O)c1ccccc1-c1ccc(CN(Cc2ccccc2Cl)C(=O)Cc2ccccc2Cl)cc1 [Example 291] | 23.7
N#CNS(=O)(=O)c1ccccc1-c1ccc(CN(Cc2nc3ccccc3[nH]2)C(=O)CCCc2cccs2)cc1 [Example 192] | 49.1
N#CNS(=O)(=O)c1ccccc1-c1ccc(CN(CC2CC2)C(=O)Cc2cccs2)cc1 [Example 144] | 60.3
N#CNS(=O)(=O)c1ccccc1-c1ccc(CN(Cc2ccccc2)C(=O)c2ccccc2F)cc1 [Example 37] | 52.0

same assay, conditions: compound at 10 μM; R(3) to R(7) hydrogen series

Structure (SMILES) | Residual activity % of the NCBE at 10 μM [%]
N#CNS(=O)(=O)c1ccccc1-c1ccc(CN(CC2(c3ccccc3)CCCC2)C(=O)Cc2ccco2)cc1 [Example 394] | 72.5
N#CNS(=O)(=O)c1ccccc1-c1ccc(CN(Cc2cccc(-c3ccccc3)c2)C(=O)CC2CCCC2)cc1 [Example 367] | 25.5
N#CNS(=O)(=O)c1ccccc1-c1ccc(CN(Cc2cccc3ccccc23)C(=O)Cc2ccco2)cc1 [Example 391] | 55.4
CC(C(=O)N(Cc1ccc(-c2ccccc2S(=O)(=O)NC#N)cc1)Cc1cccc2ccccc12)c1cccs1 (centres unmarked) [Example 390] | 89.8

same assay, conditions: compound at 10 μM; sub-table with R7 substituent

Structure (SMILES) | Residual activity % of the NCBE at 10 μM [%]
Cc1ccc(-c2ccc(CN(Cc3cccs3)C(=O)C(C)c3cccs3)cc2)c(S(=O)(=O)NC#N)c1 (centres unmarked) [Example 525] | 74.0
Cc1ccc(-c2ccc(CN(Cc3ccccc3F)C(=O)Cc3ccc(Cl)cc3)cc2)c(S(=O)(=O)NC#N)c1 [Example 535] | 84.0
Cc1ccc(-c2ccc(CN(Cc3cccs3)C(=O)CC3CCCCC3)cc2)c(S(=O)(=O)NC#N)c1 [Example 549] | 67.3
Cc1ccc(-c2ccc(CN(Cc3ccccc3F)C(=O)Cc3cccs3)cc2)c(S(=O)(=O)NC#N)c1 [Example 519] | 95.6
Cc1ccc(-c2ccc(CN(Cc3ccccc3Cl)C(=O)Cc3ccsc3)cc2)c(S(=O)(=O)NC#N)c1 [Example 540] | 64.6
Cc1ccc(-c2ccc(CN(Cc3ccccc3)C(=O)C(C)c3cccs3)cc2)c(S(=O)(=O)NC#N)c1 (centres unmarked) [Example 521] | 88.2
Cc1ccc(-c2ccc(CN(Cc3ccccc3F)C(=O)Cc3ccsc3)cc2)c(S(=O)(=O)NC#N)c1 [Example 543] | 55.3
Cc1ccc(-c2ccc(CN(Cc3ccccc3Cl)C(=O)CC3CCCCC3)cc2)c(S(=O)(=O)NC#N)c1 [Example 548] | 65.2
N#CNS(=O)(=O)c1ccc(Cl)cc1-c1ccc(CN(Cc2ccccc2)C(=O)Cc2cccs2)cc1 [Example 553] | 85.7
Cc1ccc(-c2ccc(CN(Cc3ccc4ccccc4c3)C(=O)C(C)c3cccs3)cc2)c(S(=O)(=O)NC#N)c1 (centres unmarked) [Example 523] | 92.3
